{"source": "patent US5192664A", "about": "“Parathyroid hypertensive factor, antibodies and uses thereof” (Pang; Peter K. T., priority 1990, dated 1993)", "system": "Blood Pressure in SHR", "assay": "Feeding of nifedipine and dietary calcium to SHR rats for 8 weeks, mean blood pressure", "type": "in vivo, rat", "details": "for Blood Pressure in SHR: nifedipine 0 mg/kg food, 8 weeks feeding", "description": "Male rats of the SHR strain, obtained from Harlan Sprague-Dawley, 12 weeks old, were divided into groups of 12 or 24, and were fed prepared diets containing 0.2%, 0.4% and 0.8% elemental calcium, respectively. […] Distilled water was available ad lib. Feeding was continued for 8 weeks and the mean blood pressure of each animal was determined at the end of that time.", "data": [{"smiles": "[Ca]", "note": "[Calcium]", "values": [{"measurement": "decrease in blood pressure", "setting": "4 times the amount of ordinary dietary calcium, no nifedipine", "result": "measurable, but small"}, {"measurement": "Blood Pressure in SHR", "setting": "dietary calcium 0.4%", "result": "164 ± 6", "unit": "mm Hg"}, {"measurement": "Blood Pressure in SHR", "setting": "dietary calcium 0.8%", "result": "169 ± 6", "unit": "mm Hg"}]}]}
